{
  "source": "patent US20250135012A1",
  "about": "“DENDRIMER CONJUGATES OF SMALL MOLECULE BIOLOGICS FOR INTRACELLULAR DELIVERY” (The Johns Hopkins University, priority 2021, published 2025)",
  "key": {"[1]": {"system": "choroidal neovascularization (CNV)", "assay": "Laser-induced CNV mouse model, CNV area", "format": "in vivo, C57BL/6J mice", "experimental": "Prior to laser induction of CNV, a cocktail of ketamine/xylazine/acepromazine (100 mg/kg of ketamine, 20 mg/kg of xylazine, and 3 mg/kg of acepromazine) was injected intraperitoneally to anesthetize the animals. Animals were then treated with a drop of topical 2.5% Phyenylephrine Hydrochloride ophthalmic solution followed by 0.5% Tetracaine hydrochloride ophthalmic solution for pupil dilation. A Micron III SLO (Phoenix Research Labs, Pleasanton, CA) was used to image the fundus and focus the attached laser system (Phoenix Research Labs). Four equidistantly placed laser burns in the Bruch's membrane were created with a laser power setting of 240 mW at a duration of 70 ms.\nIn brief, a 30G insulin syringe was used to create an injection opening in the sclera. A 10 μL Hamilton syringe was then used to administer the treatment directly into the vitreous cavity. After treatment, animals were given topical ocular antibiotic (gentamicin and prednisolone acetate ophthalmic ointment) to prevent infection. Animals were then sacrificed at set time points post treatment (7 and 14 days) for imaging and biochemical analysis.\n(§1) At set time points, animals were sacrificed and the enucleated eyes fixed in 4% paraformaldehyde for 1 h. The choroid and retina are then dissected out. Tissues were blocked and permeabilized through 2 h incubation with a solution of 5% normal goat serum, 0.3% Triton X-100, and 1% bovine serum albumin at room temperature under constant agitation. To visualize macrophage, tissues were stained with anti-Iba1 antibody (1:100; FUJIFILM® Wako Chemicals, Osaka, Japan) followed by ALEXA FLUOR® 405-labeled goat anti-rabbit secondary antibody (1:200; Abcam, MA, USA). Blood vessels were stained with FITC-labeled isolectin (GS IB4) (1:100; Life Technologies, Eugene, OR, USA).\n(§2) Flat-mounts were created by making four radial incisions on the tissue and mounting the relaxed tissues on coverslips. CNV formation was imaged with confocal 710 microscope (Carl Zeiss, Oberkochen, Germany) for biodistribution, and with an Axiovert phase contrast microscope for area calculation."}, "IL-1β": {"system": "IL-1β", "assay": "IL-1β mRNA in LPS stimulated BV2 cells (PCR)", "format": "cell-based, murine", "experimental": "(§3) HMEC and BV2 samples were then collected with TRIzol for polymerase chain reaction (PCR) analysis. In brief, samples were subjected to a freeze-thaw cycle with TRIzol followed by the addition of 200 μL of chloroform (Thermo Fisher Scientific). The samples were shaken and placed in ice for 15 min. To aid in the separation of aqueous and organic layers, samples were centrifuged for 15 min at 15,000 g. The aqueous solution was collected and isopropanol was added to each sample (500 μL; Thermo Fisher Scientific). Samples were centrifuged again for 15 min at 15,000 g then washed with 75% ethanol in DEPC-treated water.\n(§4) RNA content was determined through Nanodrop and equivalent amount of RNA from each sample were converted to complementary DNA (Applied Biosystems, Foster City, CA). PCR analysis was performed on STEP ONE PLUS® real-time PCR system (Applied Biosystems) with Fast SYBR Green reagent. PCR primers for VEGF-A, GAPDH, and IL-1β were obtained from Bio-Rad Laboratories (Hercules, CA). Primers were purchased from Integrated DNA Technologies (Coralville, IA). Primers for TNFα were: […]"}, "VEGF-A [2]": {"system": "VEGF-A", "assay": "VEGF-A mRNA in HMECs (PCR)", "format": "cell-based, human", "experimental": "as §3, §4"}, "TNFα [3]": {"system": "TNFα", "assay": "Choroid TNFα mRNA by PCR, CNV mouse model", "format": "in vivo", "experimental": "(§5) For PCR, choroids were immersed in TRIzol, homogenized with steel beads, and filtered through Corning COSTAR SPIN-X® centrifuge tube filters (Sigma-Aldrich) to remove tissue solids. The RNA was isolated following the previously described protocol and the RNA concentration was determined through Nanodrop. Equivalent amounts of RNA were converted to complementary DNA (cDNA) and analyzed with Fast SYBR Green reagent through the STEP ONE PCR® system."}, "TNFα [4]": {"system": "TNFα", "assay": "TNFα mRNA in LPS stimulated BV2 cells (PCR)", "format": "cell-based, murine", "conditions": "BV2, LPS 100 ng/mL, 24 h, 1-100 nM", "experimental": "as §3, §4"}, "VEGF-A [5]": {"system": "VEGF-A", "assay": "Choroid VEGF-A mRNA by PCR, CNV mouse model", "format": "in vivo", "conditions": "day 14", "experimental": "as §5"}, "HMECs": {"system": "HMECs", "assay": "HMEC Matrigel tube formation assay", "format": "cell-based, human", "conditions": "24 h pretreatment, imaged after 7 h on Matrigel", "experimental": "HMECs were seeded onto 12-well plates at a density of 1×10^5 cells/mL and allowed to grow to confluency. […] After 24 h of treatment, cells were collected by detaching them with trypsin, collecting the resulting cell suspension, and centrifuging at 300 g for 5 min. Tube formation assay was performed according to protocol provided by Lonza.\nIn brief, on the day of the assay, 96-well plates were coated with 75 μL of phenol-free […]® and left to polymerize at 37° C. for 20 min. The cell pellets were re-suspended with 300 μL of media and 75 μL of the solution (400,000 cells/mL) were seeded onto each […]®-coated wells."}, "[6]": {"system": "CNV area (macrophages, endothelial cells)", "assay": "In vivo distribution and colocalization, CNV mouse model", "experimental": "For biodistribution studies, 1 μg of Cy5-D-miR126-Cy3 or miR-126-Cy3 on a nucleic acid basis (at concentration of 1 μg/μL) were administered to the animals in accordance to the above steps. Tissues were extracted at set time points (1, 3, 5, 7, 14 days post-treatment).\nas §1, §2\nTo assess uptake and distribution, Cy3 labeled miR-126 and dually labeled Cy5-D-miR126-Cy3 were injected into laser CNV mouse models and choroids were collected at 1, 3, 5, 7, 14 days post-injection. Iba1 staining was used to visualize the intracellular environment of macrophage, and isolectin GS-IB4 was used to stain for both blood vessels and macrophages."}, "VEGF-A [7]": {"system": "VEGF-A", "assay": "Choroid VEGF-A protein by ELISA, CNV mouse model", "format": "in vivo", "experimental": "Eyes were dissected immediately after enucleation without fixation. The choroid was collected and stored at −80° C. prior to analysis. For ELISA analysis, choroids were immersed in T-PER protein extraction buffer (Thermo Fisher Scientific) and homogenized with 0.9-2.0 mm stainless steel beads on a Bullet Blender Storm tissue homogenizer (Next Advantage Inc., Averill Park, NY). The supernatant was centrifuged to collect the aqueous solution. The samples were stored in −80° C. and used without further processing for ELISA detection of VEGF-A levels."}, "[8]": {"conditions": "24 h post-injection (earliest time point)"}},
  "data": [
    {"substance": "miR-126: sense 5′-UCGUACCGUGAGUAAUAAUGCG-3′ (SEQ ID NO: 4); antisense 5′-CGCAUUAUUACUCACGGUACGA-[Thiol C6 S—S]-3′ (SEQ ID NO: 5) (3' thiol C6 S-S on antisense; misc_feature 22 3' end linked to Thiol-Modifier C6 S-S)", "values": [
      {"measurement": "CNV area", "setting": "[1]; day 7, one intravitreal dose on day of CNV induction", "value": "~8,000 μm^2"},
      {"measurement": "CNV area decrease (significance)", "setting": "[1]; day 14", "value": "insignificant decrease"},
      {"measurement": "reduction of CNV area compared to the control", "setting": "[1]; day 14", "value": "~10", "unit": "%"},
      {"measurement": "CNV area", "setting": "[1]; day 14, one intravitreal dose", "value": "~8,000 μm^2"},
      {"measurement": "concentration with the higher/high IL-1β knockdown effect", "setting": "IL-1β", "value": 10, "unit": "nM"},
      {"measurement": "dose response of IL-1β knockdown", "setting": "IL-1β; 1-100 nM", "value": "inverse dose response"},
      {"measurement": "doses repressing VEGF-A at the same level as lower doses of D-miR126", "setting": "VEGF-A [2]", "value": "10 to 100", "unit": "nM"},
      {"measurement": "knockdown of VEGF-A production", "setting": "VEGF-A [2]; 24 h, full-serum", "value": "~20", "unit": "%"},
      {"measurement": "TNFα mRNA", "setting": "TNFα [3]; 7 days, not statistically significant", "value": "elevated"},
      {"measurement": "TNFα mRNA", "setting": "TNFα [3]; 14 days", "value": "suppressed TNFα"},
      {"measurement": "knockdown of TNFα", "setting": "TNFα [4]", "value": "~50", "unit": "%"},
      {"measurement": "VEGF-A mRNA levels", "setting": "VEGF-A [5]", "value": "still reduced"},
      {"measurement": "network formation", "setting": "HMECs", "value": "disruption of network formation"},
      {"measurement": "fraction of Cy3 (miR-126) signal colocalized with Iba1 (macrophages)", "setting": "[6]; [8]", "value": "around 2%"},
      {"measurement": "fraction of signal in combined macrophage/endothelial population (isolectin GS-IB4)", "setting": "[6]; [8]", "value": "around 3%"},
      {"measurement": "time in the CNV target area", "setting": "[6]; intravitreal, confocal microscopy", "value": "up to 7 days"},
      {"measurement": "fraction of signal colocalized within macrophages", "setting": "[6]; peak at 5 days", "value": "~10", "unit": "%"},
      {"measurement": "fraction of signal within combined macrophage/endothelial population", "setting": "[6]; peak at 5 days", "value": "~15", "unit": "%"},
      {"measurement": "VEGF-A protein vs untreated", "setting": "VEGF-A [7]; day 7", "value": "significant decrease"},
      {"measurement": "VEGF levels, treated vs untreated animals", "setting": "VEGF-A [7]; day 14", "value": "no differences"}
    ]}
  ]
}
